Source: patent US6602880B2, “3-phenyl-3,7-diazabicyclo[3.3.1] nonane compounds, process for preparing them, pharmaceutical compositions containing them and use thereof to inhibit cardiac arrhythmia” (priority 2001, dated 2003)

Tests used:
mice = test: Determination of the minimum toxic dose; assay type: in vivo; settings: mouse p.o.; lowest dose causing death or severe toxic symptoms; maximum dose 300 mg/kg; observed 72 hours
Method: Male mice each having a weight of 20 to 25 g were administered maximum doses of 300 mg/kg of the test substance p.o. The animals were observed carefully for toxicity symptoms for 3 hours. Additionally all symptoms and deaths were recorded over a period of 72 hours after administration. Concomitant symptoms were likewise observed and recorded. If death or severe toxic symptoms were observed, further mice were administered increasingly lower doses until toxic symptoms no longer occurred. The lowest dose which caused death or severe toxic symptoms is indicated in the following Table A as the minimum toxic dose.

[1] = system: anaesthetised guinea pigs; test: In vivo antiarrhythmic properties (ERP) and blood pressure under tachycardic conditions in anaesthetised guinea pigs; parameters: species or system guinea pig; settings: i.v.
Source text: The effects of the substances on the effective refractory period (=ERP) and the blood pressure on i.v. administration with increased heart rate were investigated on anaesthetised guinea pigs. A bipolar stimulation catheter was inserted into the right ventricle of the animals via a jugular vein under full anaesthesia. The heart rates of the animals were kept at about 150% of their normal heart rates via this catheter by means of electrical stimulation during the entire investigation. A cannula for i.v. administration of the test substances was inserted in the other jugular vein. During the investigation, the systolic and the diastolic arterial blood pressure (=SAP and DAP) were measured in a carotid artery via a pressure gauge (Statham pressure transducer). The test substances were administered i.v. in increasing doses (cumulatively). Before administration of the first dose and in each case 8 minutes after administration of each dose, the ERP was determined by means of a double pulse protocol. The dose at which a prolongation of the ERP to 115% of the starting value was achieved was considered as the effective dose (=ERP-ED115). Effective doses for a hypotensive effect were considered as the dose at which the SAP was decreased to 85% of its starting value (=SAP-ED85), and the dose at which the DAP was decreased to 85% of its starting value (=DAP-ED85).

[2] = system: isolated papillary muscle of the right ventricle of guinea pigs; test: In vitro functional refractory period on electrically stimulated papillary muscles from guinea-pig hearts; settings: concentration prolonging FRP by 12 milliseconds; stimulation 3 Hz; 20 minutes after addition
Method: The heart was quickly removed from guinea pigs which had been sacrificed by a blow to the back of the neck and the papillary muscles of the right ventricle were fixed in organ baths through which temperature-controlled oxygenated nutrient solution flowed. The muscle preparations were electrically stimulated with a frequency of 3 Hz. The test substances were added to the organ baths in increasing concentrations (cumulatively). In each case 20 minutes after addition of the test substance, the functional refractory period was determined by means of a double pulse protocol. In each case a cumulative concentration/action curve was plotted from the measured values. The concentration at which a prolongation of the FRP by 12 milliseconds was achieved was calculated from this as the effective concentration (=FRP-EC+12ms).

[3] = system: isolated perfused rabbit hearts; test: In vitro potential proarrhythmogenity on isolated perfused rabbit hearts (monophasic action potential); settings: three hearts (n=3), one value each; for Instability: control about 7 ms; for Triangulation: control about 90 ms
Method: The extent of the potential proarrhythmogenity of Class III antiarrhythmic substances can be estimated using the measurement of electrophysiological parameters such as “instability” and “triangulation” (see below) on the monophasic action potential, derived from isolated perfused rabbit hearts. The pharmacological test set forth below was performed analogously to the method fundamentally described in L. M. Hondeghem et al., Circulation 103 (2001) 2004-2013 (referred to hereafter as “Hondeghem et al.”), in conjunction with L. M. Hondeghem, Journal of Cardiovascular Electrophysiology 5(8) (1994) 711-721 (referred to hereafter as “Hondeghem”). The hearts were quickly removed from rabbits which had been sacrificed by a blow to the back of the neck, and were immediately perfused in a Langendorff arrangement under constant pressure (80 cm H2O) with temperature-controlled oxygenated nutrient solution. The heart was stimulated with different stimulation protocols using two stimulation electrodes which were each arranged in the region of the right and left crus of the bundle of His (cf. “Hondeghem et al.”). Two further electrodes (one discharge electrode endocardially in the region of the septum of the left ventricle and a reference electrode epicardially on the left ventricle) served to discharge the monophasic action potential.
Using the monophasic action potential duration with different repolarisation levels (APD10-90; “APD10” designates the action potential duration until the occurrence of 10% of repolarisation), the following parameters were derived as indicators of the proarrhythmogenity:
(1) Instability: The change in the APD60 from heartbeat to heartbeat is designated “instability”. Under control conditions, this value is on average about 7 milliseconds (=ms). Greater deviations from this average value towards a longer duration (>7 ms) indicate an increased probability of occurrence for proarrhythmias caused by the test substances investigated.
(2) Triangulation: The repolarisation time in ms from APD30 to ADP90 is designated “triangulation”. Under control conditions, this value is usually about 90 ms.
The results obtained with the method described above on three hearts (n=3) in each case are reproduced in the following Table D.

iKs = biological target: T1, iKs (Canis lupus familiaris, UniProt A0A8I3N8W8); test: Blocking action on slow delayed rectifier potassium current iKs, whole-cell patch-clamp on dog cardiac muscle cells; assay type: cell-based; settings: dog left ventricle cardiac muscle cells; 1 μM nisoldipine and 2 μM E-4031 added; holding potential -40 mV
T1 construct: the individualised cardiac muscle cells are investigated electrophysiologically using the “whole-cell patch-clamp” method; from tissue; host or cells: isolated dog left ventricular cardiac muscle cells
T1 sequence (A0A8I3N8W8 1-676): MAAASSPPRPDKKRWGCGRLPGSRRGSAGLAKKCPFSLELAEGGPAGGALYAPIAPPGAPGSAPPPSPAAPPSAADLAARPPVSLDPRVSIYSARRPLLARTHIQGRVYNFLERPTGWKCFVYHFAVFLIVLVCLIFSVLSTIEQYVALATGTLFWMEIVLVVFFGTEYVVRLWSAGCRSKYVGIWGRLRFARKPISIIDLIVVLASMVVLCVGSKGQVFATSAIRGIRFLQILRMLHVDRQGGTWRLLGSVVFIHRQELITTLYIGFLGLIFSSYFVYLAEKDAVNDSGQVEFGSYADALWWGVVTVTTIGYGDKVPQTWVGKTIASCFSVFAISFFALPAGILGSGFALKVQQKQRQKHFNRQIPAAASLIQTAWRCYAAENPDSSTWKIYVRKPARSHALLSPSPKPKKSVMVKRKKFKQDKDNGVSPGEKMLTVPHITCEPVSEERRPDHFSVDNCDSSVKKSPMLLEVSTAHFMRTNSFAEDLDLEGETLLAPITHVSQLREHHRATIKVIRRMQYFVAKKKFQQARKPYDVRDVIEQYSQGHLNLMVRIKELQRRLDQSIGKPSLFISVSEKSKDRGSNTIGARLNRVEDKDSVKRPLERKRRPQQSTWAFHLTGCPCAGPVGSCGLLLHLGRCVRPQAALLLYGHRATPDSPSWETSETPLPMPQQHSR
Method: The iKs can be measured selectively in the manner described below: the hearts are quickly removed from anaesthetised dogs and a muscle section from the left ventricle is perfused with collagenase-containing solution via an arterial vessel. The well-dissociated tissue is comminuted and the individualised cardiac muscle cells are investigated electrophysiologically using the “whole-cell patch-clamp” method (cf. O. P. […] The iKs is then determined using the current amplitude immediately after a 5-second pulse protocol of -40 mV holding potential at most +50 mV depolarisation. The iKr (HERG) can be measured selectively in the manner stated below: to measure the iKr, a cell line (human embryonal kidney cells, HEK293; see e.g. American Tissue Culture Collection (=ATCC) No.: CRL-1573) is used, which is stably transfected with the gene for the iKr (HERG) (cf. Z. Zhou et al., Biophysical Journal 74(1) (1998) 230-241). […] The iKr is determined using the current amplitude at -40 mV holding potential immediately after a 500 ms pulse protocol of -75 mV holding potential at most +10 mV depolarisation. That substance concentration at which 50% of the maximum current is blocked (IC50 %) is determined from the inhibitions of the corresponding current at different substance concentrations.

iKr (HERG) = biological target: T2, iKr (HERG) (Homo sapiens, UniProt Q12809); test: Blocking action on rapid delayed rectifier potassium current iKr (HERG), HEK293 cells stably transfected; assay type: cell-based; settings: HEK293 cells stably transfected with HERG
T2 construct: expressed in transfected cells; host or cells: HEK293 (ATCC CRL-1573), stably transfected
Method: The iKr (HERG) can be measured selectively in the manner stated below: to measure the iKr, a cell line (human embryonal kidney cells, HEK293; see e.g. American Tissue Culture Collection (=ATCC) No.: CRL-1573) is used, which is stably transfected with the gene for the iKr (HERG) (cf. Z. Zhou et al., Biophysical Journal 74(1) (1998) 230-241). […] The iKr is determined using the current amplitude at −40 mV holding potential immediately after a 500 ms pulse protocol of −75 mV holding potential at most +10 mV depolarisation. That substance concentration at which 50% of the maximum current is blocked (IC50 %) is determined from the inhibitions of the corresponding current at different substance concentrations.

anaesthetised cats = test: In vivo fibrillation threshold in anaesthetised cats; parameters: species or system cat; settings: more marked on the atrium than on the ventricle
Source text: Such an atrioselective increase in the fibrillation threshold is an indication that the tested compound has a beneficial action profile with a reduced proarrhythmogenity risk.

T2 sequence (Q12809 whole entry): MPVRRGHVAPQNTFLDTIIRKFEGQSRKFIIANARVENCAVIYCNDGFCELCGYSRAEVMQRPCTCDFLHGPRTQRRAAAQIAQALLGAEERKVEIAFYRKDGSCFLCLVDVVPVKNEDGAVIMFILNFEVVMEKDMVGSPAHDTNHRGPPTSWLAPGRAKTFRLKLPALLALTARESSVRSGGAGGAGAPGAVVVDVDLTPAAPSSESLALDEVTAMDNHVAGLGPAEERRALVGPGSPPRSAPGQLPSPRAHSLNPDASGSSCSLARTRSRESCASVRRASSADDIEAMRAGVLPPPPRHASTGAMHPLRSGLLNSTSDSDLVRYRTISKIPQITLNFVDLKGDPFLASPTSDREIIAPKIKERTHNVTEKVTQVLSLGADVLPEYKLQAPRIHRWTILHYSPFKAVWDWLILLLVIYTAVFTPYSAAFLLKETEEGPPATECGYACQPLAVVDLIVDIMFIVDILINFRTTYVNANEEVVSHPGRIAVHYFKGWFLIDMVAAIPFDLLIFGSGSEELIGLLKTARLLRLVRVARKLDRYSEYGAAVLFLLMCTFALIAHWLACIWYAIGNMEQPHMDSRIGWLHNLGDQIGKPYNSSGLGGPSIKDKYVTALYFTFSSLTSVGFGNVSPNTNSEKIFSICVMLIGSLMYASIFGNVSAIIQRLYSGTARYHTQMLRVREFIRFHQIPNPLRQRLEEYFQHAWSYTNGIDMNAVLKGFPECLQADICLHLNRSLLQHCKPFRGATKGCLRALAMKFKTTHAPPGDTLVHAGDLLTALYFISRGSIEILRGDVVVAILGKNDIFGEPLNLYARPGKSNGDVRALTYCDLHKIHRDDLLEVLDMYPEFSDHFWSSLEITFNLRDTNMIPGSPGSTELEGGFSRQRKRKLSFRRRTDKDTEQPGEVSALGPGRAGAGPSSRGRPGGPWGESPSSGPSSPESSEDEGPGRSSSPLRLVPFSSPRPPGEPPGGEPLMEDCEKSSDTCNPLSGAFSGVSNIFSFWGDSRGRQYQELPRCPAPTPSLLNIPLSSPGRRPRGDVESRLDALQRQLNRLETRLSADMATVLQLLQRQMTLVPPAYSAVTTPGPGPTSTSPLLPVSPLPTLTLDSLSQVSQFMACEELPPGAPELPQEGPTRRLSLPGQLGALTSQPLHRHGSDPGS

Compound	Minimum toxic dose (mice)	Antiarrhythmic action ERP-ED115 ([1]; cumulative doses, dose prolonging ERP to 115% of starting value, heart rate about 150% of normal)	Vasodepression ED85 DAP ([1]; dose decreasing diastolic arterial pressure to 85% of starting value, >> = no tendency to vasodepression at the doses tested)	Vasodepression ED85 SAP ([1]; dose decreasing systolic arterial pressure to 85% of starting value, >> = no tendency to vasodepression at the doses tested)	Antiarrhythmic action FRP-EC+12 ms [2]	Instability ([3]; 0.3 μM)	Triangulation ([3]; 0.3 μM)	Instability ([3]; 1 μM)	Triangulation ([3]; 1 μM)	IC50 (iKs)	IC50 (iKr (HERG))	increase in the fibrillation threshold (anaesthetised cats; administration i.v.)	increase in the fibrillation threshold (anaesthetised cats; administration p.o.)
CCCCN1CC2CN(c3ccc([N+](=O)[O-])cc3[N+](=O)[O-])CC(C1)C2(C)C [Example 1, 7-(n-Butyl)-3-(2,4-dinitrophenyl)-9,9-dimethyl-3,7-diazabicyclo[3.3.1]nonane]	300 mg/kg	0.4 µmol/kg	>>10 μmol/kg	>>10 μmol/kg	0.6 µmol/L	–	–	–	–	–	–	–	–
CCCCN1CC2CN(c3ccc(C#N)cc3)CC(C1)C21CCCC1.O=C(O)C(O)C(O)C(=O)O [Example 4, 7-(n-Butyl)-3-(4-cyanophenyl)-9,9-tetramethylene-3,7-diazabicyclo[3.3.1]nonane Hydrogen Tartrate]	–	–	–	–	0.8 µmol/L	6/3/3	48/64/62	6/25/7	52/79/79	700 nM	20 nM	dosage-dependent, clear, long-lasting increase in the fibrillation threshold	dosage-dependent, clear, long-lasting increase in the fibrillation threshold
